Measured values: patent EP0071535B1, “(4-(2 and/or 3-Thienylacetamido)-phenoxy)-hydroxyaminopropanes, their preparation, their therapeutic use and intermediates” (CARPIBEM (CENTRE D'ACTIVITE ET DE RECHERCHE PHARMACEUTIQUE …, priority 1981, dated 1983)

Experiments:
[1] = tested on: effets β1 (augmentation de la force contractile du myocarde) de l'isoprénaline; assay: β-blocking activity: inhibition of the β1 effects of intravenous isoprenaline in anaesthetised dogs; type: in vivo, chiens; details: Canis lupus familiaris, iv, dog, inhibition given with negative sign, read-out: % d'inhibition des effets β1^(+) de l'Isoprénaline; for inhibition at 0.001 mg/kg: 0,001 mg/kg I.V.; for inhibition at 0.003 mg/kg: 0,003 mg/kg I.V.; for inhibition at 0.01 mg/kg: 0,010 mg/kg I.V.; for inhibition at 0.1 mg/kg: 0,100 mg/kg I.V.
Protocol: (§1) Des chiens tout-venants mâles ou femelles sont anesthésiés au mébubarbital sodique (30 mg/kg I.V.) et ventilés artificiellement par une pompe Pesty RPP. Ils sont supplémentés en oxygène.
(§2) On mesure: • - la pression carotidienne systolique et diastolique • - la force contractile du myocarde.
(§3) Les signaux sont amplifiés et enregistrés sur Dynograph Beckman.
(§4) L'activité β bloquante adrénergique a été étudiée vis-à-vis des effets β1 (augmentation de la force contractile du myocarde) et des effets P2 (diminution de la pression artérielle disstolique) de l'isoprénaline administrée par voie intraveineuse.
(§5) On calcule le pourcentsge d'inhibition des effets β1 et des effets β2 de l'isoprénaline en fonction des doses (mg.kg I.V.) des différents exemples.
(§6) Les exemples sont injectés dans le veine saphène aux doses (exprimées en base) de: 0,0003 0,001 0,003 0,01 0,1 1,0 et 4,0 ou 8,0 mg.kg-1.

[2] = tested on: effets β2 (diminution de la pression artérielle diastolique) de l'isoprénaline; assay: β-blocking activity: inhibition of the β2 effects of intravenous isoprenaline in anaesthetised dogs; type: in vivo, chiens; details: Canis lupus familiaris, iv, dog, inhibition given with negative sign, read-out: % d'inhibition des effets β2^⊕ de l'Isoprénaline; for inhibition at 0.001 mg/kg: 0,001 mg/kg I.V.; for inhibition at 0.003 mg/kg: 0,003 mg/kg I.V.; for inhibition at 0.01 mg/kg: 0,010 mg/kg I.V.; for inhibition at 0.1 mg/kg: 0,100 mg/kg I.V.
Protocol: as §1, §2, §3, §4, §5, §6

[3] = tested on: rat génétiquement hypertendu: Rat OKAMOTO; assay: Antihypertensive activity in spontaneously hypertensive rats (tail-cuff systolic pressure and heart rate after oral dosing); type: in vivo; details: 64 mg.kg^-1 V.O
Protocol: Des rats mâles âgés de 13 à 21 semaines présentant une hypertension spontanée génétiquement transmissible (souche OKAMOTO provenance IFFA CREDO) sont placés dans une enceinte thermostatée à 38°C. Les rats sont laissés en situation libre. La pression artérielle est mesurée par un sphygmomanomètre Narco Biosystem. Un manchon est placé à la base de la queue et un détecteur enregistre le pouls en aval du manchon. Celui-ci est gonflé jusqu'à suppression du pouls il est ensuite progressivement dégonflé. La pression mesurée à la reprise des battements cardiaques est la pression artérielle systolique. On calcule la fréquence cardiaque à partir de l'enregistrement du pouls artériel. Les produits à étudiar sont mis en suspension el administrés par voie orale sous un volume de 1 ml pour 100 g de poids corporel. Les mesures sont répétées à intervalles réguliers.
Les valeurs moyennes avant traitement pour les différents lots de rats sont pour la pression artérielle systolique de 190 à 200 mmHg et pour la fréquence cardiaque de 305 à 350 battements par minute.
Le tableau III ci-après donne la moyenne des variations de la pression systolique (mmHg) de la fréquence cardisque (battements/minute) et les écarts type à la moyenne obtenus 1 heure 3 heures et 5 heures après administration orale.

| Compound | inhibition at 0.001 mg/kg [1] | inhibition at 0.003 mg/kg [1] | inhibition at 0.01 mg/kg [1] | inhibition at 0.1 mg/kg [1] | inhibition at 0.001 mg/kg [2] | inhibition at 0.003 mg/kg [2] | inhibition at 0.01 mg/kg [2] | inhibition at 0.1 mg/kg [2] | Fréquence cardiaque Δ (battements/min) T+1 heure m (sm) [3] | Pression systolique Δ (mmHg) T+1 heure m (sm) [3] | Pression systolique Δ (mmHg) T+3 heures m (sm) ([3]; T+3 heures) | Fréquence cardiaque Δ (battements/min) T+5 heures m (sm) [3] | Pression systolique Δ (mmHg) T+5 heures m (sm) [3] | Fréquence cardiaque Δ (battements/min) T+3 heures m (sm) ([3]; T+3 heures) |
| --- | --- | --- | --- | --- | --- | --- | --- | --- | --- | --- | --- | --- | --- | --- |
| CC(C)(C)NCC(O)COc1ccc(NC(=O)Cc2ccsc2)cc1Cl (stereo not drawn) [exemple 45, 1-[2-chloro 4-(3-thiénylacétamido)phénoxy] 3-terbutylamino 2-propanol] | -30% | -60% | -86% | -100% | -12% | -5% | -23% | -33% | +45 (6) battements/min | -32 (5) mmHg | -14 (9) mmHg | +30 (10) battements/min | -28 (5) mmHg | – |
| CC(C)NCC(O)COc1ccc(NC(=O)Cc2cccs2)cc1F (stereo not drawn) [exemple 48, 1-[2-fluoro 4-(2-thiénylacétamido)phénoxy] 3-isopropylamino 2-propanol] | -11% | -23% | -41% | -83% | -27% | -31% | -46% | -52% | +38 (10) battements/min | -51 (6) mmHg | -50 (6) mmHg | +27 (10) battements/min | -45 (6) mmHg | +41 (8) battements/min |
